What was measured:
[1] = Particle size and polydispersity index of nanoparticle compositions (Zetasizer Nano ZS); assay type: physicochemical
In short: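 Formulations of ionizable lipid, DSPC, cholesterol and PEG-DMG (50:10:38.5:1.5 mol %) carrying Luc or hEPO mRNA with all uridines as N1-methyl pseudouridine. Dynamic light scattering in 1×PBS gave particle size and polydispersity; zeta potential read in 15 mM PBS.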

IL-6, IP-10 = assay: Cytokine induction (IL-6, IP-10) in mice 6 hours after intravenous administration; assay type: in vivo; design: unit not given here; details: intravenous 0.5 mpk
In short: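 IL-6 and IP-10 concentrations determined 6 hours after a single intravenous 0.5 mpk dose of lipid nanoparticle formulation in mice, with MC3 and PBS as comparators.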

hEPO mRNA = assay: hEPO expression after intravenous administration to rats; assay type: in vivo, rat; details: for hEPO expression / hEPO expression, 0.25 h / hEPO expression, 0.5 h / hEPO expression, 1 h / hEPO expression, 2 h / hEPO expression, 4 h / hEPO expression, 8 h / hEPO expression, 24 h / hEPO expression, 48 h: rat; for Lipid/MC3 hEPO conc. ratio, 0.2 mpk / Lipid/MC3 hEPO conc. ratio, 2 mpk: rats; for Lipid/MC3 hEPO expression: 6 hours after administration
Experimental: The expression of hEPO and cytokine induction in rats intravenously administered a nanoparticle composition at a dose of 2.0 mpk was measured at 6 h.
The expression of hEPO in rats intravenously administered a nanoparticle composition at a dose of 0.2 mpk or 2.0 mpk was measured at 6 hours. Table 16 summarize the ratio of hEPO expression levels using various nanoparticle compositions as compared to the hEPO expression level using MC3 formulation and the lipid levels in the liver measured 48 hours after administration, as described above. Tables 17 and 18 summarize the lipid levels in the liver and spleen measured 48 hours after administration of Compounds 28, 33, 53, and 54. Liver and spleen levels represent the average values calculated for 3 rats in each group. As is shown in Tables 17 and 18, less than 10% of Compounds 28, 33, 53, and 54 remained in the liver after 48 hours, while greater than 60% of MC3 remained.
Table 19A summarizes the hEPO expression, IP-10 induction, liver and spleen levels, and alanine aminotransferase (ALT) and aspartate aminotransferase (AST) measured upon intravenous administration of formulations including Compounds 48, 49, and 50 to rat at 0.2 and 2 mpk and hEPO mRNA. hEPO concentrations were measured 6 hours after administration, while cytokine induction and liver and spleen levels were measured 48 hours after administration. hEPO and IP-10 concentrations are presented in pg/ml, while liver levels are provided in ng/g. ALT and AST levels are presented in international units.
The expression of hEPO induced by intravenous administration to rats of nanoparticle compositions at various doses was measured at 2, 4, 6, 8, 24, and 48 hour time points. FIGS. 3-6 respectively summarize the hEPO expression measured upon intravenous administration of formulations including Compounds 26, 18, 25, and MC3 to rat at various doses. The lipid levels of Compound 26 in the liver after 48 hours were about 19%.
The expression of hEPO and lipid levels in the liver and spleen in rats intravenously administered a nanoparticle composition at a dose of 0.2 mpk was measured at various time points. Compounds 18 and 25 were selected for comparison with MC3. Lipids were formulated according to the standard MC3 formulation described above. Rats were administered intravenously a single 0.2 mpk dose and expression monitored at 0.25, 0.5, 1, 2, 4, 8, 24, and 48 hours after administration.

modified luciferase = assay: Luciferase expression in liver, lung, spleen and femur 6 hours after intravenous administration to mice; assay type: in vivo; details: 6 hours after intravenous 0.5 mpk, mice
In short: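 Mice (n=3) got a single 0.5 mpk IV dose of each nanoparticle composition, with MC3 and PBS controls alongside. Organ luminescence flux was read 6 h post-dose.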

[2] = Table 1A, lipid:DSPC:cholesterol:PEG-DMG 50:10:38.5:1.5 mol %
[3] = Table 1B, formulated with hEPO mRNA
[4] = Table 1D, compositions for subcutaneous administration, # formulated with hEPO mRNA
[5] = Table 1C, compositions for subcutaneous administration
[6] = Table 1E, compositions for subcutaneous administration
[7] = lipid:DSPC:Chol:PEG-DMG (50:10:38.5:1.5), hEPO mRNA
[8] = nanoparticle composition with hEPO mRNA (Table 30)

Compound | Size [1, 2] | Size [1, 4] | Size [1, 5] | Cytokine induction, IL-6 (IL-6, IP-10) | Cytokine induction, IP-10 (IL-6, IP-10) | hEPO expression (hEPO mRNA; intravenous, 6 h, 2 mpk) | Lipid/MC3 hEPO conc. ratio, 0.2 mpk (hEPO mRNA; intravenous 0.2 mpk, 6 hours) | Lipid/MC3 hEPO conc. ratio, 2 mpk (hEPO mRNA; intravenous 2 mpk, 6 hours) | Total Flux, Femur (modified luciferase) | Total Flux, Liver (modified luciferase) | Total Flux, Lung (modified luciferase) | Total Flux, Spleen (modified luciferase) | Size [1, 3] | hEPO expression, 0.25 h (hEPO mRNA; intravenous 0.2 mpk) | hEPO expression, 0.5 h (hEPO mRNA; intravenous 0.2 mpk) | hEPO expression, 1 h (hEPO mRNA; intravenous 0.2 mpk) | hEPO expression, 2 h (hEPO mRNA; intravenous 0.2 mpk) | hEPO expression, 4 h (hEPO mRNA; intravenous 0.2 mpk) | hEPO expression, 8 h (hEPO mRNA; intravenous 0.2 mpk) | hEPO expression, 24 h (hEPO mRNA; intravenous 0.2 mpk) | also measured
CCCCCCCCCOC(=O)CCCCCCCN(CCO)CCCCCCCC(=O)OC(CCCCCCCC)CCCCCCCC [Compound 18, Heptadecan-9-yl 8-((2-hydroxyethyl)(8-(nonyloxy)-8-oxooctyl)amino)octanoate] | 87.9 nm | 75.0 nm |  | 78.76 | 139.92 | 9.96e+06 pg/mL |  | 0.81 | 4.68E+06 | 2.76E+09 | 1.25E+07 | 5.15E+07 | 73.7 nm | 20227 pg/mL | 20743 pg/mL | 194353 pg/mL | 238107 pg/mL | 514807 pg/mL | 915320 pg/mL | 412051 pg/mL | hEPO expression, 48 h (hEPO mRNA; intravenous 0.2 mpk): 52361 pg/mL
CCCCCCCCCOC(=O)CCCN(CCO)CCCCCCCC(=O)OC(CCCCCCCC)CCCCCCCC [Compound 26, Heptadecan-9-yl 8-((2-hydroxyethyl)(4-(nonyloxy)-4-oxobutyl)amino) octanoate] |  |  |  | 273.56 | 2330.01 |  |  | 4.95 | 4.67E+06 | 2.90E+09 | 1.18E+07 | 1.56E+07 |  |  |  |  |  |  |  |  | 
CCCCCC=CCC=CCCCCCCCCC(CCCCCCCCC=CCC=CCCCCC)OC(=O)CCCN(C)C (stereo not drawn) [MC3, heptatriaconta-6,9,28,31-tetraen-19-yl 4-(dimethylamino)butanoate, reference compound] | 79.7 nm | 69.1 nm | 56.9 nm | 124.42 | 504.90 | 1.33e+07 pg/mL | 1 | 1 | 2.56E+06 | 2.57E+09 | 1.27E+07 | 2.85E+07 | 57.7 nm | 0 pg/mL | 42457 pg/mL | 93720 pg/mL | 524093 pg/mL | 601307 pg/mL | 1536833 pg/mL | 703619 pg/mL | PDI [1, 2]: 0.11; PDI [1, 3]: 0.12; PDI [1, 5]: 0.09; PDI [1, 4]: 0.15; PDI [1, 6]: 0.10; Size [1, 6]: 62.4 nm; PDI [1, 7]: 0.114; Size [1, 7]: 73.7 nm; PDI [1, 8]: 0.220; Size [1, 8]: 106.0 nm; Lipid/MC3 hEPO expression (hEPO mRNA; 0.2 mpk dose to rat): 1; Lipid/MC3 hEPO expression (hEPO mRNA; 2 mpk dose to rat): 1; [hEPO] (hEPO mRNA; Table 19B): 14800 pg/mL; hEPO AUC (hEPO mRNA; Table 19B): 3.46e+07 pg·h/mL; hEPO expression (hEPO mRNA; intravenous 0.2 mpk, 6 hours): 7.68e+06 pg/mL; hEPO expression, 48 h (hEPO mRNA; intravenous 0.2 mpk): 64687 pg/mL; hEPO expression (hEPO mRNA; intravenous 2 mpk, 6 hours): 9.29e+06 pg/mL
Nonyl 8-((6-(heptadecan-9-yloxy)-6-oxohexyl)(2-hydroxyethyl)amino) octanoate [Compound 27] | 82.3 nm |  |  | 161.07 | 345.56 |  |  |  | 2.00E+06 | 2.16E+09 | 6.35E+06 | 3.78E+06 |  |  |  |  |  |  |  |  | PDI [1, 2]: 0.18

Continued, in another order:

Size [1, 2] | Size [1, 4] | Size [1, 5] | Compound | Cytokine induction, IL-6 (IL-6, IP-10) | Cytokine induction, IP-10 (IL-6, IP-10) | hEPO expression (hEPO mRNA; intravenous, 6 h, 2 mpk) | Lipid/MC3 hEPO conc. ratio, 0.2 mpk (hEPO mRNA; intravenous 0.2 mpk, 6 hours) | Lipid/MC3 hEPO conc. ratio, 2 mpk (hEPO mRNA; intravenous 2 mpk, 6 hours) | Total Flux, Femur (modified luciferase) | Total Flux, Liver (modified luciferase) | Total Flux, Lung (modified luciferase) | Total Flux, Spleen (modified luciferase) | Size [1, 3] | hEPO expression, 0.25 h (hEPO mRNA; intravenous 0.2 mpk) | hEPO expression, 0.5 h (hEPO mRNA; intravenous 0.2 mpk) | hEPO expression, 1 h (hEPO mRNA; intravenous 0.2 mpk) | hEPO expression, 2 h (hEPO mRNA; intravenous 0.2 mpk) | hEPO expression, 4 h (hEPO mRNA; intravenous 0.2 mpk) | hEPO expression, 8 h (hEPO mRNA; intravenous 0.2 mpk) | hEPO expression, 24 h (hEPO mRNA; intravenous 0.2 mpk) | also measured
97.5 nm |  |  | CCCCCCCCCN(CCO)CCCCCCCC(=O)OC(CCCCCCCC)CCCCCCCC [Compound 3, Heptadecan-9-yl 8-((2-hydroxyethyl)(nonyl)amino)octanoate] | 282.88 | 2052.87 | 1.74e+07 pg/mL | 2.41 | 1.21 | 7.36E+06 | 1.39E+10 | 4.76E+07 | 1.47E+08 |  |  |  |  |  |  |  |  | 
99.5 nm |  | 88.5 nm | CCCCCC/C=C\COC(=O)CCCCCCCN(CCO)CCCCCCCC(=O)OC(CCCCCCCC)CCCCCCCC [Compound 24, Heptadecan-9-yl (Z)-8-((2-hydroxyethyl) (8-(non-2-en-1-yloxy)-8-oxooctyl)amino)octanoate] | 163.53 | 1172.93 | 1.44e+07 pg/mL | 1.75 | 1.01 | 4.54E+06 | 4.19E+09 | 1.71E+07 | 8.78E+07 |  |  |  |  |  |  |  |  | 
 | 77.6 nm | 76.3 nm | CCCCCCCCCCCOC(=O)CCCCCN(CCO)CCCCCCCC(=O)OC(CCCCCCCC)CCCCCCCC [Compound 25, Heptadecan-9-yl 8-((2-hydroxyethyl)(6-oxo-6-(undecyloxy)hexyl)amino)octanoate] | 233.45 | 1194.13 | 3.05e+07 pg/mL | 2.41 | 2.13 | 4.40E+06 | 2.41E+09 | 1.51E+07 | 3.11E+07 | 69.7 nm | 0 pg/mL | 19553 pg/mL | 434299 pg/mL | 2042807 pg/mL | 3176560 pg/mL | 2631633 pg/mL | 869374 pg/mL | hEPO expression, 48 h (hEPO mRNA; intravenous 0.2 mpk): 103089 pg/mL
59.4 nm | 89.8 nm | 81.7 nm | CCCCCCCCCOC(=O)CCCCCCCN(CCO)CCCCCCCOC(=O)C(CCCCCCCC)CCCCCCCC [Compound 30, 7-((2-Hydroxyethyl)(8-(nonyloxy)-8-oxooctyl)amino)heptyl 2-octyldecanoate] | 152.51 | 1638.77 | 1.63e+07 pg/mL | 1.87 | 1.14 | 6.38E+06 | 2.68E+09 | 1.02E+07 | 3.55E+07 | 76.3 nm |  |  |  |  |  |  |  | 
82.3 nm | 79.8 nm |  | CCCCCCCCC(C)OC(=O)CCCCCCCN(CCO)CCCCCCCC(=O)OC(CCCCCCCC)CCCCCCCC (stereo not drawn) [Compound 48, decan-2-yl 8-((8-(heptadecan-9-yloxy)-8-oxooctyl)(2-hydroxyethyl)amino)octanoate] |  |  |  | 5.39 | 3.84 |  | 1.08E+10 | 3.31E+07 | 3.49E+08 |  |  |  |  |  |  |  |  | 

Reference: patent US10857105B2, “Compounds and compositions for intracellular delivery of therapeutic agents” (ModernaTX, Inc., priority 2017, dated 2020)
